row,melting point [°C],Compound
1,168 to 172,COc1ncc(Br)cc1/C=C/C(=O)c1ccc(Cl)cc1
2,94 to 95.5,c1ccc(CN2CCN(Cc3ccccc3)[C@@H](CCc3cccnc3)C2)cc1
3,161 to 162,NC(=O)c1cc(F)cc(-c2ccc(F)c3cc(Cc4cccc(C(F)(F)F)c4)sc23)c1
4,170 to 172,O=C1c2ccccc2COc2cc(C=NO)ccc21
5,194 to 195,COc1cc(OC)cc(-c2nc(CCOc3ccc(C[C@H](OC)C(=O)O)c4sccc34)c(C)o2)c1
6,180 to 190,COc1ccc(-n2c(N)cc(=O)nc2Nc2ccccc2)cc1
7,226,CCOC(=O)c1ccc(-c2cnc3c(c2)N(Cc2c(Cl)cccc2Cl)C(=O)CN3)cc1
8,165 to 175,O=C(N[C@@H](Cc1ccc(O)cc1)C(=O)O)C(=Cc1ccccc1)NC(=O)C(F)(F)F
9,261 to 263,CN1C(C(=O)Nc2ccccc2)=C(O)c2sc3ccccc3c2S1(=O)=O
10,98 to 99,c1ccc2c(c1)CCc1ccccc1C2=NCC1CC1
11,158 to 160,Cc1nnc2c(C(C)Oc3ccc(Cl)cc3)ccnn12 (stereo not given)
12,217 to 220,Cn1nnnc1-c1cn(C)c2cc(S(=O)c3ccccc3)ccc2c1=O (stereo not given)
13,182 to 185,CCc1c(C(F)(F)F)nn(-c2ccc(S(N)(=O)=O)nc2)c1-c1ccc(-c2cscn2)c(F)c1
14,> 250,O=C(CSCc1cc(Br)cc2[nH]c(=O)c(=O)[nH]c12)Nc1ccccc1
15,193,CN(c1ccccc1)c1ncnc2c(I)cnn12
16,117 to 119,O=C(O)CCc1ccc(-c2cccc(-c3ccnc4c(C(=O)c5cccs5)cnn34)c2)cc1
17,113 to 115,O=C(O)CCCCCNS(=O)(=O)c1ccccc1
18,192 to 194,CC(C)n1c(C=O)c(-c2ccc(F)cc2)c(-c2ccccc2)c1C(=O)NCCc1cccnc1
19,179 to 180,CC(C)CC(=O)Nc1c(C(=O)c2cccc(C(F)(F)F)c2)[nH]c2cc(Cl)ccc12
20,136 to 137,C=CC(=O)N(C)c1cccc2c(=O)c(C)c(-c3ccccc3)oc12
21,90 to 92.5,Cc1ccccc1C(=O)c1cccn1C
22,165 to 168,COC(=O)Nc1ccc(OCc2nc3cc(F)ccc3s2)cc1C
23,> 300,O=C(O)Cn1c(=O)c(=O)[nH]c2ccccc21
24,122 to 125,COc1ccccc1N1CCN(CC(O)COc2ccc3cc(C(C)=O)oc3c2)CC1 (stereo not given)
25,229,COC(=O)c1cc(OC)c(OCc2ccccc2)c(C23CC4CC(CC(C4)C2)C3)c1
26,100 to 102,CCC(Oc1ccc(Cl)c(C)c1)C(=O)NCc1ccco1 (stereo not given)

row,melting point [°C],Compound
1,230 to 231,Oc1ccc2c(c1)COc1c-2cc2ccc(O)cc2c1Cl
2,117 to 119,CC1(C)Cc2cc(OCC(N)=O)c3c(c2C(c2ccccc2)=N1)CC(C)(C)O3
3,270 to 272,CCCC(=O)c1cnc2c(OC)cccc2c1Nc1ccc(O)cc1
4,150 to 151,Cc1ccccc1-c1nc(-c2ccc(Cl)cc2)n[nH]1
5,166 to 169,CN1CCN(CCCN2c3ccc(F)cc3Sc3ccc(S(=O)(=O)N(C)C)cc32)CC1
6,213,Cc1cc(-c2ccc(Cl)c(Cl)c2)nc(-n2cnc(-c3cccc(S(C)(=O)=O)c3)c2)n1
7,209 to 211,O=C(CN1CS(=O)(=O)CC1=O)N1CCN(C(c2ccccc2)c2ccccc2)CC1
8,336 to 338,O=c1[nH]c2ncc(-c3ccc(-c4nc[nH]n4)cc3)nc2n1CC1CCCCC1
9,103 to 104,Cc1cc(C)n(-c2nc(-c3ccc(Cl)cc3)c(CCCOc3ccccc3C)o2)n1
10,165 to 167,CS(=O)(=O)c1ccc(-c2cnn(CC=Cc3ccccc3)c(=O)c2-c2ccc(F)cc2)cc1
11,118 to 121,CN(C)C(C)(O)CC12CCC(c3ccccc31)c1ccccc12 (stereo not given)
12,86 to 91,Cc1oc2c(Br)cc(C3CCN(Cc4ccccc4)CC3)cc2c1C
13,215 to 216,Cc1cccc(CO)c1CNc1cc(Br)cc2c1nc(C)n2C
14,87 to 88,CC(=O)OCC1OC(n2cc(F)c(=O)[nH]c2=O)CC1OCc1ccccc1 (stereo not given)
15,86 to 88,Fc1cccnc1C#CCCc1nc2ccccc2o1
16,179,O=c1[nH]c2cc(Cl)ccc2c(NCc2ccccc2)c1-c1ccccc1
17,130 to 135,CCn1nccc1Nc1cc(OC)ccc1C(=O)O
18,115 to 117,CC(O)c1cc(C[C@H](NC(=O)c2c(Cl)cccc2Cl)C(=O)O)ccc1-c1ccccc1 (stereo not given in full)
19,169,N#Cc1cnn2c(C(F)(F)F)cc(-c3ccccc3Cl)nc12
20,162,O=C(CC(CC(=O)c1ccc(F)cc1)c1cccc(-c2nnn[nH]2)c1)c1ccc(F)cc1
21,171 to 172,Nc1nc2ccccc2c2c1ncn2CCCCCS(=O)(=O)c1ccccc1
22,178,O=c1ccc(-c2ccc(OC(F)(F)F)cc2)n[nH]1
23,78 to 80,Cc1cc(N2CCN(CCOc3ccccc3)C2=O)sc1C(=O)NCc1cccnc1
24,190 to 192,CCc1cc(O)c2cccc(OC)c2n1
25,93 to 97,FC(F)(F)C(/C=C/c1ccc(-n2cncn2)cc1)c1cc(Cl)cc(Cl)c1 (stereo not given)

# Further lines, the compound ahead of its results:
row,Compound,melting point [°C]
1,C#Cc1ccc(OC)c(OC)c1,71 to 72
2,O=S(=O)(Nc1cccnc1Cl)C(F)(F)F,120 to 122
3,COC(=O)Cn1cccc(O)c1=O,141 to 142
4,CC(C)C[C@H](NC(=O)OCc1ccccc1)C(=O)N[C@@H](Cc1ccccc1)C(=O)CSCCN(C)C,67 to 69
5,CCOC(=O)C1C(c2ccc(I)cc2)CC(=O)N1C (stereo not given),120 to 121
6,COCNC(=O)OC(C(=O)OC)P(C)(C)=O (stereo not given),101
7,COc1ccc(NC(=O)Nc2c(C)cc(Oc3ccc4nc(COc5ccc(CC6SC(=O)NC6=O)cc5)n(C)c4c3)cc2C)cc1 (stereo not given),229 to 231
8,CC(=O)N(C)CC(=O)c1ccc2c(c1)OCO2,99 to 101
9,COc1ccccc1SCC(=O)NCCCCCC(=O)O,95 to 97
10,CC12CCC(C(=Cc3ccc(OCCO)cc3)C1=O)C2(C)C (stereo not given),68
11,CC1(C)CC(=O)C2=C(C1)NC1=C(C(=O)CC(C)(C)C1)C2c1ccc(Cl)c(Oc2ccccc2)c1,246 to 248
12,Cc1cc(O)cc(C)c1N,190 to 191
13,CC(CF)(CF)n1cc(C(=O)O)c(=O)c2cc(F)c(N3C[C@@H]4NCCO[C@@H]4C3)cc21,> 250
14,COc1cc(N2CCN(CCC3CN(C)C(=O)O3)CC2)cc(OC)c1OC (stereo not given),86 to 88
15,Cc1nnc(CN2C(=O)c3ccccc3C2=O)n1-c1ccc(Cl)cc1C(=O)c1ccccc1Cl,262 to 265
16,O=c1[nH]cc(F)c(=S)[nH]1,254 to 255
17,CCOC(=O)c1ncn(-c2nncs2)c1S,182 to 185
18,Nc1nc(N2CCCC2)c2ncn([C@@H]3C[C@H](CO)[C@@H](O)C3)c2n1,114 to 117
19,COC(=O)c1cc2scc(Br)c2nc1C(=O)OC,165 to 168
20,CS(=O)(=O)Oc1ccc(N2CC(COc3ccc(C(=O)O)cc3)CC2=O)cc1 (stereo not given),199 to 201
21,CN(C)c1ccc(NC(=O)N(C[C@H]2CC[C@@H](CN(C(=O)Nc3ccc(N(C)C)cc3)C3CCCCCCC3)CC2)C2CCCCCCC2)cc1,197 to 200
22,COc1ccc(NC(=O)c2cc(N)ccc2NC(=O)c2ccc(C(C)(C)C)cc2)cc1,212 to 214
23,CN1CCCC2(OCCO2)C1Cc1cccc2[nH]ccc12 (stereo not given),181 to 186
24,CN1C(=O)CCC2(C)c3ccc(CC(=O)O)cc3CCC12 (stereo not given),200 to 202
25,CN(C)Cc1nc(C#N)nn1-c1ccc(Cl)cc1C(=O)c1ccccc1Cl,117 to 119

row,Compound,melting point [°C]
1,CC(C)(C)c1cc(SCCC(=O)NC2CCC3CC2C3(C)C)cc(C(C)(C)C)c1O (stereo not given),152 to 154
2,COc1ccc(C=CC(=O)c2c(OC)cc(OC)cc2OC(=O)c2ccc(OC)cc2)cc1,111 to 112
3,N#CC1(c2ccncc2)CCCCC1,79
4,CC(C)C1=C(C#N)C(c2cccc(N3CCOCC3)c2)c2c[nH]nc2N1 (stereo not given),254 to 257
5,CN1CC=C(c2c[nH]c3ccc(NC(=O)c4ccc(Cl)cc4)cc23)CC1,224 to 226
6,Cc1cc(C)cc(N(CCCC(=O)O)Cc2ccc3nc(NCCCN4CCOCC4)n(Cc4nc(C)ccc4O)c3c2)c1,121
7,CCn1cc(C(=O)O)c(=O)c2ccc(N3CCNCC3)cc21,272 to 275
8,CCc1nn(C2CN(C(C)C)C2)c(C(N)=O)c1NC(=O)c1cc(S(C)(=O)=O)ccc1OCC(C)C,185 to 189
9,COc1ccc(/C=C2/c3cc(OC)c(OC)cc3CCN2C(=O)C2CC2)cc1OC,148 to 151
10,CN1CCC=C(c2nsnc2SCCCC(=O)O)C1,99 to 101
11,Fc1nc(Cl)c2cc[nH]c2n1,180
12,COc1cc2c(cc1Nc1ncc(Cl)c(N[C@@H]3CCCC[C@H]3NS(C)(=O)=O)n1)N(C)CCN(C[C@@H](O)C(F)(F)F)C2,63 to 66
13,O=C(Nc1ccc([N+](=O)[O-])cc1)N1CC=CCC1,169 to 170
14,O=C(NC12CC3CC(CC(C3)C1)C2)n1cc(F)c(=O)[nH]c1=O,> 260
15,COC(=O)C12COc3ccccc3C1NN(C(=O)Nc1ccc(C(F)(F)F)cc1)C2 (stereo not given),211 to 212
16,O=C(O)CN(C(=O)CCSC(=O)c1ccccc1)[C@H]1CC[C@H](c2ccccc2)CC1,125 to 128
17,N#Cc1n[nH]c2nc(N3CCCNCC3)ccc12,196 to 197
18,Nc1cccc2c1CNC2,81 to 85
19,Cc1cc(C)c(CC(=O)NNC(=O)OC(C)(C)C)c(C)c1,138 to 140
20,O=C1COc2ccc(C3=C(c4ccc(Cl)cc4Cl)C(=O)OC3)cc2N1,233 to 234
21,CCCC1NS(=O)(=O)N(CCN2CC=C(c3c[nH]c4cc(F)ccc34)CC2)c2ccccc21 (stereo not given),196 to 198
22,COc1cc2ncc(C#N)c(Nc3ccc(F)c(Cl)c3)c2cc1NC(=O)C=CCN1C(C)CCC1C (stereo not given),110 to 113
23,Nc1c(Cl)cc(C(O)CNCCCCCCOCCCc2cncc(CC(=O)O)c2)cc1Cl (stereo not given),191 to 192
24,OCCOc1ccc(I)cc1,76 to 77

# — a melting point compilation (Tetko et al.; mined from patent text by program, amines drawn as free bases though some values may be those of a salt)
